Assay results as given in PMC9265050, “Inhibition of RNA Binding in SND1 Increases the Levels of miR-1-3p and Sensitizes Cancer Cells to Navitoclax” (Cancers, 2022).

How the values were obtained:
SN3-SN4-TSN (340-888) = biological target: T1, SN3-SN4-TSN (340-888) (Homo sapiens, UniProt Q7KZF4); assay: isothermal titration calorimetry, one-site model; assay type: binding
T1 construct: gene SND1; SN3-SN4-TSN domain fragment, residues 340-888; N-terminal GST tag cut with TEV protease; E. coli Rosetta 2 (DE3)
T1 sequence (Q7KZF4 340-888): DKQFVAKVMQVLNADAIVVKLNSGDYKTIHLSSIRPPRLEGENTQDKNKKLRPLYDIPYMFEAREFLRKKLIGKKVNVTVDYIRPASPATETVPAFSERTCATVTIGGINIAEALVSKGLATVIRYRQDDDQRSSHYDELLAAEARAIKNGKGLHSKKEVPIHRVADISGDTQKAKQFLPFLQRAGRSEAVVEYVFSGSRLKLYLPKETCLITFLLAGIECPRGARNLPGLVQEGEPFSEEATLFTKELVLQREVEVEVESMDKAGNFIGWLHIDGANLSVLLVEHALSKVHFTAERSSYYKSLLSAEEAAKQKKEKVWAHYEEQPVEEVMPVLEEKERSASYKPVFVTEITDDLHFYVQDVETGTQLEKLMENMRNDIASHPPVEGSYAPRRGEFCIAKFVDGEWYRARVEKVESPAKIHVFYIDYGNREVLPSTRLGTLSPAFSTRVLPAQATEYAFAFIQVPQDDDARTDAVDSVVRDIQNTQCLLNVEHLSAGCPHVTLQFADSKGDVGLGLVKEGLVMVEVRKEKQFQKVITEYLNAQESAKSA
Source text: isothermal titration calorimetry, one-site model on SN3-SN4-TSN (340-888)

SN1-SN2 (16-339) = biological target: T2, SN1-SN2 (16-339) (Homo sapiens, UniProt Q7KZF4); assay: isothermal titration calorimetry, one-site model; assay type: binding
T2 construct: gene SND1; SN1-SN2 domain fragment, residues 16-339; N-terminal GST tag cut with TEV protease; E. coli Rosetta 2 (DE3)
T2 sequence (Q7KZF4 16-339): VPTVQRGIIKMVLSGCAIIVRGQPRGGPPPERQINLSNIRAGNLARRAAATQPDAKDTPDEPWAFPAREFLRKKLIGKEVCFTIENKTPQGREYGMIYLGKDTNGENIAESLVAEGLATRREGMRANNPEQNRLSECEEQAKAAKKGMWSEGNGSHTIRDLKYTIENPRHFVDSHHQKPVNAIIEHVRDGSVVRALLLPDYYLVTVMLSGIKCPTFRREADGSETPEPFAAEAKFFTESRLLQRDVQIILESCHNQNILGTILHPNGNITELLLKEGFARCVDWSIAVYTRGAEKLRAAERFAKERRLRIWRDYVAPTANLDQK
Source text: isothermal titration calorimetry, one-site model on SN1-SN2 (16-339)

SND1 full-length = SND1 full-length (UniProt Q7KZF4 1-910); assay: fluorescence polarization; high affinity, Kd only in figure; inhibited by suramin, not by navitoclax; FP: 20 mM HEPES pH 7.5, 100 mM NaCl, 3 nM labelled RNA, 25 C; EMSA: same buffer with 5 mM EGTA or 5 mM CaCl2, room temperature 1 or 4 h, 20% PAGE 1xTBE 4 C; conditions: protein: recombinant; tags: GST tag removed by TEV; label: 5' 6-FAM; single strand
SND1 full-length, sequence (Q7KZF4 whole entry): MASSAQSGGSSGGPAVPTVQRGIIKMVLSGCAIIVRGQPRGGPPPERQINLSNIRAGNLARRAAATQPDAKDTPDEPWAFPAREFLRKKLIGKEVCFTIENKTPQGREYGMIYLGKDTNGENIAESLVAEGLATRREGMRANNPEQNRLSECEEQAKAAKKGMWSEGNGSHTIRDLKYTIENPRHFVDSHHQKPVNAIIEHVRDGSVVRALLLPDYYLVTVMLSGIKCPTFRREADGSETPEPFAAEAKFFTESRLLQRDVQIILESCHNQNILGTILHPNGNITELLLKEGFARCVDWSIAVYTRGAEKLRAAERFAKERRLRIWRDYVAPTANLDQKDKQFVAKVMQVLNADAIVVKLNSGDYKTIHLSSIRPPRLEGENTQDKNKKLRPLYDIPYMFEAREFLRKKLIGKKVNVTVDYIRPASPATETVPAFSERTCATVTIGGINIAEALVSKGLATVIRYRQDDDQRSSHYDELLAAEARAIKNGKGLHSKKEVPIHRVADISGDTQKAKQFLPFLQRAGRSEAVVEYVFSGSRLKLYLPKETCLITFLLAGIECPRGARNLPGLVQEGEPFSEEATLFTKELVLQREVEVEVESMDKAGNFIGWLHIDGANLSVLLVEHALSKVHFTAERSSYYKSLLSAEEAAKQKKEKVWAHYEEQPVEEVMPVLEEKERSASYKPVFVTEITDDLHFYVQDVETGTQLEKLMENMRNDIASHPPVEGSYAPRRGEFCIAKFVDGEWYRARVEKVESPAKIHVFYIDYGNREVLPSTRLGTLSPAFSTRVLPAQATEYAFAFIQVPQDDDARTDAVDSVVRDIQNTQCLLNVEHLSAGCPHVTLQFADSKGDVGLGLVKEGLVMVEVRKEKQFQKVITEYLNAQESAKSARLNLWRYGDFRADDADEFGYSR

Molecule	Kd (SN3-SN4-TSN (340-888))	Kd (SN1-SN2 (16-339))	binding result (SND1 full-length)
Cc1ccc(C(=O)Nc2ccc(S(=O)(=O)O)c3cc(S(=O)(=O)O)cc(S(=O)(=O)O)c23)cc1NC(=O)c1cccc(NC(=O)Nc2cccc(C(=O)Nc3cc(C(=O)Nc4ccc(S(=O)(=O)O)c5cc(S(=O)(=O)O)cc(S(=O)(=O)O)c45)ccc3C)c2)c1 [Suramin]	5.59 µM	12.1 µM	
UGGAAUGUAAAGAAGUAUGUAU (ssRNA) [miR-1-3p FP tracer]			binds
